How the values were obtained:
CASOB (Sicklepod) = test: Postemergence herbicidal evaluation; type: in vivo, Cassia obtusifolia; conditions: postemergence
Protocol: In the tests, seedling plants are grown in jiffy flats for about two weeks. The test compounds are dispersed in 50/50 acetone/water mixtures containing 0.5% TWEEN®20, a polyoxyethylene sorbitan monolaurate surfactant of Atlas Chemical Industries, in sufficient quantities to provide the equivalent of about 0.0156 kg to 0.500 kg per hectare of active compound when applied to the plants through a spray nozzle operating at 40 psi for a predetermined time. After spraying, the plants are placed on greenhouse benches and are cared for in accordance with conventional greenhouse procedures. From four to five weeks after treatment, the seedling plants are examined and rated according to the rating system set forth below. Where more than one test is involved for a given compound, the data are averaged.
Plant species employed in these evaluations are reported by header abbreviation, common name and scientific name.
(§1) Results of herbicide evaluation are expressed on a rating scale (0-9). The scale is based upon a visual observation of plant stand, vigor, malformation, size, chlorosis and overall plant appearance as compared with a control.

[1] = tested on: CHEAL (Lambsquarters, Common); test: Preemergence herbicidal evaluation; type: in vivo, Chenopodium album; conditions: rated 4-5 weeks after treatment
From the text: as §1
(§2) The preemergence herbicidal activity of the test compounds of the present invention is exemplified by the following tests in which the seeds of a variety of monocotyledonous and dicotyledonous plants are separately mixed with potting soil and planted on top of approximately one inch of soil in separate pint cups. After planting, the cups are sprayed with the selected aqueous acetone solution containing test compound in sufficient quantity to provide the equivalent of about 0.0156 to 0.500 kg per hectare of test compound per cup. The treated cups are then placed on greenhouse benches, watered and cared for in accordance with conventional greenhouse procedures. From four to five weeks after treatment, the tests are terminated and each cup is examined and rated according to the rating system provided in Example 37.
(§3) The compounds evaluated are reported by compound number given in Example 37.

[2] = tested on: CHEAL (Lambsquarters, Common); test: Postemergence herbicidal evaluation; type: in vivo, Chenopodium album; conditions: postemergence
How it was run: (§4)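 Young plants, roughly two weeks from seeding, receive the active ingredient as a sprayed dispersion (acetone/water 50/50, 0.5% TWEEN 20) at 40 psi. Doses span about 0.0156 to 0.500 kg/ha. A visual score from 0 to 9 compares treated with control plants four to five weeks on.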

ORYSAT (Rice, Tebonnet) = test: Preemergence herbicidal evaluation; type: in vivo, Oryza sativa, (L.) Tebonnet; conditions: rated 4-5 weeks after treatment
From the text: as §1, §2, §3

[3] = tested on: TRZAWR (Wheat, Winter, cv Riband); test: Postemergence herbicidal evaluation; type: in vivo, Triticum aestivum; conditions: postemergence
How it was run: as §4

[4] = rate 0.0156 kg/ha, rating scale 0-9
[5] = rate 0.0313 kg/ha, rating scale 0-9
[6] = rate 0.0625 kg/ha, rating scale 0-9
[7] = rate 0.1250 kg/ha, rating scale 0-9
[8] = rate 0.2500 kg/ha, rating scale 0-9

SMILES	Preemergence herbicidal rating CHEAL ([1]; rate 0.0313 kg/ha)	Preemergence herbicidal rating CHEAL ([1]; rate 0.0625 kg/ha)	Preemergence herbicidal rating CHEAL ([1]; rate 0.1250 kg/ha)	Preemergence herbicidal rating CHEAL ([1]; rate 0.2500 kg/ha)	Preemergence herbicidal rating ORYSAT (ORYSAT (Rice, Tebonnet); rate 0.0156 kg/ha)	Preemergence herbicidal rating ORYSAT (ORYSAT (Rice, Tebonnet); rate 0.0313 kg/ha)	Preemergence herbicidal rating ORYSAT (ORYSAT (Rice, Tebonnet); rate 0.0625 kg/ha)	Preemergence herbicidal rating ORYSAT (ORYSAT (Rice, Tebonnet); rate 0.1250 kg/ha)	Preemergence herbicidal rating ORYSAT (ORYSAT (Rice, Tebonnet); rate 0.2500 kg/ha)	CASOB herbicidal rating (CASOB (Sicklepod); rate 0.0158 kg/ha)	Preemergence herbicidal rating CHEAL ([1]; rate 0.0156 kg/ha)	Herbicidal rating CASOB (CASOB (Sicklepod); rate 0.0156 kg/ha)	Herbicidal rating CASOB (CASOB (Sicklepod); rate 0.0313 kg/ha)	Herbicidal rating CASOB (CASOB (Sicklepod); rate 0.0625 kg/ha)	Herbicidal rating CHEAL ([2]; rate 0.0156 kg/ha)	Herbicidal rating CHEAL ([2]; rate 0.0313 kg/ha)	Herbicidal rating CHEAL ([2]; rate 0.0625 kg/ha)	Herbicidal rating TRZAWR ([3]; rate 0.0156 kg/ha)	Herbicidal rating TRZAWR ([3]; rate 0.0313 kg/ha)	Herbicidal rating TRZAWR ([3]; rate 0.0625 kg/ha)	also measured
COC(=O)COC(=O)CN1C(=O)CSC1=Nc1cc(-n2c(=O)cc(C(F)(F)F)n(C)c2=O)c(F)cc1Cl [Compound 108, 2-{{2-Chloro-5-[3,6-dihydro-3-methyl-2,6-dioxo-4-(trifluoromethyl)-1(2H)-pyrimidinyl]-4-fluorophenyl}imino}-4-oxo-3-thiazolidineacetic acid, ester with methyl glycolate]	0.0	9.0	9.0	9.0	0.0	0.0	0.0	1.0	5.0												Herbicidal rating CASOB (CASOB (Sicklepod); rate 0.0158 kg/ha): 1.0; Herbicidal rating CASOB (CASOB (Sicklepod); rate 0.0315 kg/ha): 1.0; Herbicidal rating CASOB (CASOB (Sicklepod); rate 0.0630 kg/ha): 1.0; Herbicidal rating CHEAL ([2]; rate 0.0158 kg/ha): 4.0; Herbicidal rating CHEAL ([2]; rate 0.0315 kg/ha): 7.0; Herbicidal rating CHEAL ([2]; rate 0.0630 kg/ha): 9.0; Herbicidal rating TRZAWR ([3]; rate 0.0158 kg/ha): 3.0; Herbicidal rating TRZAWR ([3]; rate 0.0315 kg/ha): 3.5; Herbicidal rating TRZAWR ([3]; rate 0.0630 kg/ha): 4.5
C[C@H](C(=O)O)N1C(=O)CSC1=Nc1cc(-n2c(=O)cc(C(F)(F)F)n(C)c2=O)c(F)cc1Cl [Compound 70, 2-{{2-Chloro-5-[3,6-dihydro-3-methyl-2,6-dioxo-4-(trifluoromethyl)-1(2H)-pyrimidinyl]-4-fluoro-phenyl}imino}-α-methyl-4-oxo-3-thiazolidineacetic acid, D-]	9.0	9.0	9.0	9.0	0.0	0.0	0.0	1.0	3.0	0.0	2.0										CASOB herbicidal rating (CASOB (Sicklepod); rate 0.0315 kg/ha): 0.0; CASOB herbicidal rating (CASOB (Sicklepod); rate 0.0630 kg/ha): 3.0; CHEAL herbicidal rating ([2]; rate 0.0158 kg/ha): 4.0; CHEAL herbicidal rating ([2]; rate 0.0315 kg/ha): 9.0; TRZAWR herbicidal rating ([3]; rate 0.0158 kg/ha): 2.5; TRZAWR herbicidal rating ([3]; rate 0.0315 kg/ha): 4.0; TRZAWR herbicidal rating ([3]; rate 0.0630 kg/ha): 5.5
COC(=O)C(Cc1ccc(Cl)cc1)N1C(=O)CSC1=Nc1cc(-n2c(=O)cc(C(F)(F)F)n(C)c2=O)c(F)cc1Cl (racemic) [Compound 77, Methyl α-(p-chlorobenzyl)-2-{{2-chloro-5-[3,6-dihydro-3-methyl-2,6-dioxo-4-(trifluoromethyl)-1(2H)-pyrimidinyl]-4-fluorophenyl}imino}-4-oxo-3-thiazolidineacetate, DL-]	9.0	9.0	9.0	9.0	0.0	0.0	0.0	0.0	0.0	1.0	2.0										CASOB herbicidal rating (CASOB (Sicklepod); rate 0.0315 kg/ha): 1.0; CASOB herbicidal rating (CASOB (Sicklepod); rate 0.0630 kg/ha): 1.0; CHEAL herbicidal rating ([2]; rate 0.0158 kg/ha): 6.0; CHEAL herbicidal rating ([2]; rate 0.0315 kg/ha): 9.0; CHEAL herbicidal rating ([2]; rate 0.0630 kg/ha): 9.0; TRZAWR herbicidal rating ([3]; rate 0.0158 kg/ha): 3.0; TRZAWR herbicidal rating ([3]; rate 0.0315 kg/ha): 2.5; TRZAWR herbicidal rating ([3]; rate 0.0630 kg/ha): 3.0
Cn1c(C(F)(F)F)cc(=O)n(-c2cc(N=C3SCC(=O)N3Cc3ccc(F)cc3)c(Cl)cc2F)c1=O [Compound 151, 3-{4-Chloro-2-fluoro-5-{[3-(p-fluorobenzyl)-4-oxo-2-thiazolidinylidene]amino}phenyl}-1-methyl-6-(trifluoromethyl)-2,4(1H,3H)-pyrimidinedione]												2.0	4.0	4.0	9.0	7.0	9.0	2.5	2.5	4.0	Preemergence herbicidal rating CHEAL [1, 4]: 9.0; Preemergence herbicidal rating CHEAL [1, 5]: 9.0; Preemergence herbicidal rating CHEAL [1, 6]: 9.0; Preemergence herbicidal rating CHEAL [1, 7]: 9.0; Preemergence herbicidal rating CHEAL [1, 8]: 9.0; Preemergence herbicidal rating ORYSAT (ORYSAT (Rice, Tebonnet); [4]): 2.0; Preemergence herbicidal rating ORYSAT (ORYSAT (Rice, Tebonnet); [5]): 5.0; Preemergence herbicidal rating ORYSAT (ORYSAT (Rice, Tebonnet); [6]): 5.0; Preemergence herbicidal rating ORYSAT (ORYSAT (Rice, Tebonnet); [7]): 9.0; Preemergence herbicidal rating ORYSAT (ORYSAT (Rice, Tebonnet); [8]): 9.0
Cn1c(C(F)(F)F)cc(=O)n(-c2cc(N=C3SCC(=O)N3Cc3cc(Cl)cc(Cl)c3)c(Cl)cc2F)c1=O [Compound 150, 3-{4-Chloro-5-{[3-(3,5-dichlorobenzyl)-4-oxo-2-thiazolidinylidene]amino}-2-fluorophenyl}-1-methyl-6-(trifluoromethyl)-2,4(1H,3H)-pyrimidinedione]												1.0	3.0	3.0	9.0	9.0	9.0	3.5	3.5	3.5	Preemergence herbicidal rating CHEAL [1, 5]: 9.0; Preemergence herbicidal rating CHEAL [1, 6]: 9.0; Preemergence herbicidal rating CHEAL [1, 7]: 9.0; Preemergence herbicidal rating CHEAL [1, 8]: 9.0; Preemergence herbicidal rating ORYSAT (ORYSAT (Rice, Tebonnet); [5]): 0.0; Preemergence herbicidal rating ORYSAT (ORYSAT (Rice, Tebonnet); [6]): 1.0; Preemergence herbicidal rating ORYSAT (ORYSAT (Rice, Tebonnet); [7]): 2.0; Preemergence herbicidal rating ORYSAT (ORYSAT (Rice, Tebonnet); [8]): 1.0
Cc1ccccc1CN1C(=O)CSC1=Nc1cc(-n2c(=O)cc(C(F)(F)F)n(C)c2=O)c(F)cc1Cl [Compound 129, 3-{4-Chloro-2-fluoro-5-{[3-(o-methylbenzyl)-4-oxo-2-thiazolidinylidene]amino}phenyl}-1-methyl-6-(trifluoromethyl)-2,4 (1H,3H)-pyrimidinedione]	3.0	9.0	9.0	9.0	0.0	0.0	1.0	1.0	3.0		4.0	3.0	4.0	4.0	5.0	9.0	9.0	3.0	3.5	3.5	

— US20020137929A1, “1 - (3-heterocyclylphenyl) isothiourea, -isourea, -guanidine and -amidine herbicidal agents” (Intellectual Property Department, BASF Aktiengesellschaft, priority 1998, published 2002)
